Measurements published in patent publication US5506243A, “Sulfonamide derivatives” (Mitsubishi Kasei Corporation, priority 1993, dated 1996).

Target: T1, m-Calpin (Rattus norvegicus, UniProt Q07009)
T1 construct: m-Calpin was purified from brains of rats; from tissue; host or cells: rat brain
T1 sequence (Q07009 1-700): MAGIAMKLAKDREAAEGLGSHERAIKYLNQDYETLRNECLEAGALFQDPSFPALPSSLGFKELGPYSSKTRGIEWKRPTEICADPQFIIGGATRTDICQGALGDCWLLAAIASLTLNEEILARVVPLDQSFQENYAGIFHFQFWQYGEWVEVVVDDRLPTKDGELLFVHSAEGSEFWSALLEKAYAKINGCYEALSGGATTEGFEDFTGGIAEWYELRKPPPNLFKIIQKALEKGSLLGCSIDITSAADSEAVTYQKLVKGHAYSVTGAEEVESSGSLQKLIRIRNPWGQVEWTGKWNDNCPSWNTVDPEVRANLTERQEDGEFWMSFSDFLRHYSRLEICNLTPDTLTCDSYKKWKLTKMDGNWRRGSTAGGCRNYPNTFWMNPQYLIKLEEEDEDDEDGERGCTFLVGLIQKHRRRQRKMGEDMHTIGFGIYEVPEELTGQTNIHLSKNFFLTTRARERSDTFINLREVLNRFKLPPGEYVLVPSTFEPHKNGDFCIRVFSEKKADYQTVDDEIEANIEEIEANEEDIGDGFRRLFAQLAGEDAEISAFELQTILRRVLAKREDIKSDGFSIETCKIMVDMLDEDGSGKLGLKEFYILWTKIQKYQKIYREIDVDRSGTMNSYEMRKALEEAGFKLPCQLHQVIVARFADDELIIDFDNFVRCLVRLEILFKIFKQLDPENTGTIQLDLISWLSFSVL
T1 sequence (Q64537 1-270 partner): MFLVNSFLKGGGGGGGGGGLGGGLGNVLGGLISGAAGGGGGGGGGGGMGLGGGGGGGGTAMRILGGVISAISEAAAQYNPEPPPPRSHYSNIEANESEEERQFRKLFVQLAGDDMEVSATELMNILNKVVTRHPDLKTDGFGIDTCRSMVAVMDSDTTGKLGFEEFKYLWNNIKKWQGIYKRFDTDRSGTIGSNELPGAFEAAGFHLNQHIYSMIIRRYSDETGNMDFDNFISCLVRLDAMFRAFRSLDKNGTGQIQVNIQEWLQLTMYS
Experiment: Measurement of calpain inhibitory activity
Format: biochemical
Details: m-calpain purified from brains of rats
Description: Measurement of calpain inhibitory activity
For comparison, inhibitory activity of leupeptin (N-terminus is in the form of amide) and calpeptin (N-terminus is in the form of carbamate) was also measured.

IC50 [nM] | Compound
46 | CCCC[C@@H](C=O)NC(=O)[C@H](CC(C)C)NC(=O)OCc1ccccc1 [Calpeptin]
11 | CC(C)C[C@H](NS(=O)(=O)c1ccccc1)C(=O)N[C@H](C=O)C(C)C [Example 1, N-phenylsulfonyl-L-leucyl-L-valinal]
6.5 | CC(C)C[C@H](NS(=O)(=O)c1cccnc1)C(=O)N[C@H](C=O)C(C)C [Example 2, N-3-pyridylsulfonyl-L-leucyl-L-valinal]

Compound | IC50 [nM]
CC(=O)N[C@@H](CC(C)C)C(=O)N[C@@H](CC(C)C)C(=O)N[C@H](C=O)CCCNC(=N)N [Leupeptin] | 360
